# From PubChem BioAssay (NCI)
#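 Assay format: 96-well plates, 48-hour exposure. TGI denotes the concentration required for complete inhibition of growth.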
# How the values were obtained:
# Test in all cases: inhibition of tumour cell growth, NCI panel, 48 h
# [1] = tested on: HCT-116 colon
# [2] = tested on: OVCAR-8 ovarian
# [3] = tested on: DU-145 prostate
# [4] = tested on: MDA-N
# [5] = tested on: MDA-MB-231 breast
# [6] = tested on: KM12 colon
# [7] = tested on: UACC-62 melanoma
# [8] = tested on: NCI-H460 lung
# [9] = tested on: MALME-3M melanoma
# [10] = tested on: HOP-62 NSCLC
# [11] = tested on: TK-10 renal
# [12] = tested on: IGROV1 ovarian
# [13] = tested on: SK-MEL-2 melanoma
# [14] = tested on: SF-295 CNS
# [15] = tested on: OVCAR-5 ovarian
# [16] = tested on: NCI-H23 lung
# [17] = tested on: UACC-257 melanoma
# [18] = tested on: OVCAR-4 ovarian
# [19] = tested on: UO-31 renal
# [20] = tested on: HS 578T breast
Structure (SMILES),TGI [1] [µM],TGI [2] [µM],TGI [3] [µM],TGI [4] [µM],TGI [5] [µM],TGI [6] [µM],TGI [7] [µM],TGI [8] [µM],TGI [9] [µM],TGI [10] [µM],TGI [11] [µM],TGI [12] [µM],TGI [13] [µM],TGI [14] [µM],TGI [15] [µM],TGI [16] [µM],TGI [17] [µM],TGI [18] [µM],TGI [19] [µM],TGI [20] [µM]
COc1ccc2[nH]c3c(C)c4ccnc(NCCCN(C)CCCNc5ccc6ncn7c8ccccc8c(=O)c5c67)c4c(C)c3c2c1,3.01,7.16,4.14,4.29,1.2,4.65,9.18,0.682,5.92,0.784,5.49,1.32,8.74,1.85,5.2,1.94,2.9,6.94,4.21,25
O=C1C(Cl)N(c2cccc([N+](=O)[O-])c2)C1c1c[nH]c2ccccc12 (configuration not stated),44.6,60.4,,,,49.7,32.4,35.4,14.1,33.6,59.4,69.8,27.5,35.1,37.4,85.9,49,33.7,47.9,
NC12CCC(CC1=O)C2 (configuration not stated),> 100,> 100,> 100,> 100,> 100,> 100,> 100,,> 100,> 100,> 100,> 100,> 100,> 100,> 100,> 100,> 100,> 100,> 100,> 100
COc1cc2c(cc1OC)C(=O)/C(=C/c1cc(OC)c(OC)c(OC)c1)C2,,> 100,> 100,> 100,> 100,> 100,> 100,> 100,> 100,> 100,,> 100,> 100,> 100,> 100,> 100,,> 100,> 100,> 100
COC(=O)C1=C(OC(=O)/C=C/c2ccc(Cl)cc2)C(C(=O)OC)[C@@]2(O)[C@@H](C(=O)OC)[C@H](C)C[C@@H]1[C@@H]2C(=O)OC (some centres not stated),58.3,41.6,> 100,29.5,64.9,> 100,54.1,> 100,38.2,> 100,> 100,23.1,37,> 100,81.7,46,> 100,> 100,57.1,15.5
